Experiments:
[1] = test system: Diglycosidase derived from P. multicolor; assay: Reactivity toward various isoflavone glycosides (HPLC); type: biochemical, Penicillium multicolor; parameters: glucoside / aglycon: unit not given here; conditions: 55 °C, pH 4.0
In short: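 Aglycone liberation was measured by reversed-phase HPLC (260 nm, calibration-curve quantitation) after ethanol extraction at 0, 1, 3 and 6 h. Reactions ran at 55° C, pH 4.0 (20 mM acetate), with each glycoside (from 2 mM methanol stock) and 0.75 AU/mL enzyme solution.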

Crude diglycosidase = assay: Examination of temperature in the conversion into isoflavone aglycons by diglycosidase using soybean materials; type: biochemical, Penicillium multicolor IAM7153; parameters: Decomposition efficiency of glycitin family in roasted soy flour / Decomposition efficiency of daidzin family in roasted soy flour / Decomposition efficiency of genistin family in soymilk / Decomposition efficiency of daidzin family in soymilk / Decomposition efficiency of glycitin family in defatted soybean / Decomposition efficiency of daidzin family in defatted soybean: concentration or dose not given beside the values
In short: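 Temperature series (30-80° C.) of crude diglycosidase, diluted to 1.88 AU/mL in 20 mM acetate pH 4.0, acting on roasted soy flour, soymilk, defatted soybean or soy protein concentrate. Samples quenched with ethanol after 0-6 h, centrifuged, filtered and analyzed by HPLC for glycosides versus aglycons.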

[2] = 30 °C, heat treatment of enzyme: no, 0 h
[3] = 30 °C, heat treatment of enzyme: no, 1 h
[4] = 30 °C, heat treatment of enzyme: no, 3 h
[5] = 30 °C, heat treatment of enzyme: no, 6 h
[6] = 30 °C, heat treatment of enzyme: yes, 6 h
[7] = 45 °C, heat treatment of enzyme: no, 0 h
[8] = 45 °C, heat treatment of enzyme: no, 1 h
[9] = 45 °C, heat treatment of enzyme: no, 3 h
[10] = 45 °C, heat treatment of enzyme: no, 6 h
[11] = 45 °C, heat treatment of enzyme: yes, 6 h
[12] = 55 °C, heat treatment of enzyme: no, 0 h
[13] = 55 °C, heat treatment of enzyme: no, 1 h
[14] = 55 °C, heat treatment of enzyme: no, 3 h
[15] = 55 °C, heat treatment of enzyme: no, 6 h
[16] = 55 °C, heat treatment of enzyme: yes, 6 h
[17] = 65 °C, heat treatment of enzyme: no, 0 h
[18] = 65 °C, heat treatment of enzyme: no, 1 h
[19] = 65 °C, heat treatment of enzyme: no, 3 h
[20] = 65 °C, heat treatment of enzyme: no, 6 h
[21] = 65 °C, heat treatment of enzyme: yes, 6 h
[22] = 80 °C, heat treatment of enzyme: no, 0 h
[23] = 80 °C, heat treatment of enzyme: no, 1 h
[24] = 80 °C, heat treatment of enzyme: no, 3 h
[25] = 80 °C, heat treatment of enzyme: no, 6 h
[26] = 80 °C, heat treatment of enzyme: yes, 6 h

- aglycon ([1]; Reaction time 0 h): 0
- glucoside ([1]; Reaction time 0 h): 100
- aglycon ([1]; Reaction time 1 h): 78.3
- glucoside ([1]; Reaction time 1 h): 21.7
- aglycon ([1]; Reaction time 3 h): 84.5
- glucoside ([1]; Reaction time 3 h): 15.5
- aglycon ([1]; Reaction time 6 h): 86
- glucoside ([1]; Reaction time 6 h): 14
- Decomposition efficiency of glycitin family in defatted soybean (Crude diglycosidase; 30° C., heat treatment of enzyme no, reaction time 0 h): 61.3%
- Decomposition efficiency of glycitin family in defatted soybean (Crude diglycosidase; 30° C., heat treatment of enzyme no, reaction time 1 h): 48.3%
- Decomposition efficiency of glycitin family in defatted soybean (Crude diglycosidase; 30° C., heat treatment of enzyme no, reaction time 3 h): 44.6%
- Decomposition efficiency of glycitin family in defatted soybean (Crude diglycosidase; 30° C., heat treatment of enzyme no, reaction time 6 h): 45.6%
- Decomposition efficiency of glycitin family in defatted soybean (Crude diglycosidase; 30° C., heat treatment of enzyme yes, reaction time 6 h): 45.1%
- Decomposition efficiency of glycitin family in concentrated soybean protein (Crude diglycosidase; [2]): 0.4%
- Decomposition efficiency of glycitin family in roasted soy flour (Crude diglycosidase; [2]): not detected
- Decomposition efficiency of glycitin family in soymilk (Crude diglycosidase; [2]): 48.0%
- Decomposition efficiency of glycitin family in concentrated soybean protein (Crude diglycosidase; [3]): 0.5%
- Decomposition efficiency of glycitin family in roasted soy flour (Crude diglycosidase; [3]): not detected
- Decomposition efficiency of glycitin family in soymilk (Crude diglycosidase; [3]): 51.0%
- Decomposition efficiency of glycitin family in concentrated soybean protein (Crude diglycosidase; [4]): 0.5%
- Decomposition efficiency of glycitin family in roasted soy flour (Crude diglycosidase; [4]): not detected
- Decomposition efficiency of glycitin family in soymilk (Crude diglycosidase; [4]): 39.6%
- Decomposition efficiency of glycitin family in concentrated soybean protein (Crude diglycosidase; [5]): 0.5%
- Decomposition efficiency of glycitin family in roasted soy flour (Crude diglycosidase; [5]): not detected
- Decomposition efficiency of glycitin family in soymilk (Crude diglycosidase; [5]): 28.4%
- Decomposition efficiency of glycitin family in concentrated soybean protein (Crude diglycosidase; [6]): 0.4%
- Decomposition efficiency of glycitin family in roasted soy flour (Crude diglycosidase; [6]): not detected
- Decomposition efficiency of glycitin family in soymilk (Crude diglycosidase; [6]): 47.7%
- Decomposition efficiency of glycitin family in defatted soybean (Crude diglycosidase; 45° C., heat treatment of enzyme no, reaction time 0 h): 65.2%
- Decomposition efficiency of glycitin family in defatted soybean (Crude diglycosidase; 45° C., heat treatment of enzyme no, reaction time 1 h): 44.3%
- Decomposition efficiency of glycitin family in defatted soybean (Crude diglycosidase; 45° C., heat treatment of enzyme no, reaction time 3 h): 44.8%
- Decomposition efficiency of glycitin family in defatted soybean (Crude diglycosidase; 45° C., heat treatment of enzyme no, reaction time 6 h): 41.0%
- Decomposition efficiency of glycitin family in defatted soybean (Crude diglycosidase; 45° C., heat treatment of enzyme yes, reaction time 6 h): 44.2%
- Decomposition efficiency of glycitin family in concentrated soybean protein (Crude diglycosidase; [7]): 0.4%
- Decomposition efficiency of glycitin family in roasted soy flour (Crude diglycosidase; [7]): not detected
- Decomposition efficiency of glycitin family in soymilk (Crude diglycosidase; [7]): 49.1%
- Decomposition efficiency of glycitin family in concentrated soybean protein (Crude diglycosidase; [8]): 0.6%
- Decomposition efficiency of glycitin family in roasted soy flour (Crude diglycosidase; [8]): not detected
- Decomposition efficiency of glycitin family in soymilk (Crude diglycosidase; [8]): 46.2%
- Decomposition efficiency of glycitin family in concentrated soybean protein (Crude diglycosidase; [9]): 0.6%
- Decomposition efficiency of glycitin family in roasted soy flour (Crude diglycosidase; [9]): not detected
- Decomposition efficiency of glycitin family in soymilk (Crude diglycosidase; [9]): 29.9%
- Decomposition efficiency of glycitin family in concentrated soybean protein (Crude diglycosidase; [10]): 0.6%
- Decomposition efficiency of glycitin family in roasted soy flour (Crude diglycosidase; [10]): not detected
- Decomposition efficiency of glycitin family in soymilk (Crude diglycosidase; [10]): 15.3%
- Decomposition efficiency of glycitin family in concentrated soybean protein (Crude diglycosidase; [11]): 0.5%
- Decomposition efficiency of glycitin family in roasted soy flour (Crude diglycosidase; [11]): not detected
- Decomposition efficiency of glycitin family in soymilk (Crude diglycosidase; [11]): 47.2%
- Decomposition efficiency of glycitin family in defatted soybean (Crude diglycosidase; 55° C., heat treatment of enzyme no, reaction time 0 h): 61.3%
- Decomposition efficiency of glycitin family in defatted soybean (Crude diglycosidase; 55° C., heat treatment of enzyme no, reaction time 1 h): 44.8%
- Decomposition efficiency of glycitin family in defatted soybean (Crude diglycosidase; 55° C., heat treatment of enzyme no, reaction time 3 h): 42.6%
- Decomposition efficiency of glycitin family in defatted soybean (Crude diglycosidase; 55° C., heat treatment of enzyme no, reaction time 6 h): 42.7%
- Decomposition efficiency of glycitin family in defatted soybean (Crude diglycosidase; 55° C., heat treatment of enzyme yes, reaction time 6 h): 45.5%
- Decomposition efficiency of glycitin family in concentrated soybean protein (Crude diglycosidase; [12]): 0.4%
- Decomposition efficiency of glycitin family in roasted soy flour (Crude diglycosidase; [12]): not detected
- Decomposition efficiency of glycitin family in soymilk (Crude diglycosidase; [12]): 44.6%
- Decomposition efficiency of glycitin family in concentrated soybean protein (Crude diglycosidase; [13]): 0.5%
- Decomposition efficiency of glycitin family in roasted soy flour (Crude diglycosidase; [13]): not detected
- Decomposition efficiency of glycitin family in soymilk (Crude diglycosidase; [13]): 39.1%
- Decomposition efficiency of glycitin family in concentrated soybean protein (Crude diglycosidase; [14]): 0.5%
- Decomposition efficiency of glycitin family in roasted soy flour (Crude diglycosidase; [14]): not detected
- Decomposition efficiency of glycitin family in soymilk (Crude diglycosidase; [14]): 27.7%
- Decomposition efficiency of glycitin family in concentrated soybean protein (Crude diglycosidase; [15]): 0.5%
- Decomposition efficiency of glycitin family in roasted soy flour (Crude diglycosidase; [15]): not detected
- Decomposition efficiency of glycitin family in soymilk (Crude diglycosidase; [15]): 16.5%
- Decomposition efficiency of glycitin family in concentrated soybean protein (Crude diglycosidase; [16]): 0.4%
- Decomposition efficiency of glycitin family in roasted soy flour (Crude diglycosidase; [16]): not detected
- Decomposition efficiency of glycitin family in soymilk (Crude diglycosidase; [16]): 39.9%
- Decomposition efficiency of glycitin family in defatted soybean (Crude diglycosidase; 65° C., heat treatment of enzyme no, reaction time 0 h): 65.2%
- Decomposition efficiency of glycitin family in defatted soybean (Crude diglycosidase; 65° C., heat treatment of enzyme no, reaction time 1 h): 45.3%
- Decomposition efficiency of glycitin family in defatted soybean (Crude diglycosidase; 65° C., heat treatment of enzyme no, reaction time 3 h): 42.1%
- Decomposition efficiency of glycitin family in defatted soybean (Crude diglycosidase; 65° C., heat treatment of enzyme no, reaction time 6 h): 40.0%
- Decomposition efficiency of glycitin family in defatted soybean (Crude diglycosidase; 65° C., heat treatment of enzyme yes, reaction time 6 h): 48.8%
- Decomposition efficiency of glycitin family in concentrated soybean protein (Crude diglycosidase; [17]): 0.4%
- Decomposition efficiency of glycitin family in roasted soy flour (Crude diglycosidase; [17]): not detected
- Decomposition efficiency of glycitin family in soymilk (Crude diglycosidase; [17]): 48.0%
- Decomposition efficiency of glycitin family in concentrated soybean protein (Crude diglycosidase; [18]): 0.5%
- Decomposition efficiency of glycitin family in roasted soy flour (Crude diglycosidase; [18]): not detected
- Decomposition efficiency of glycitin family in soymilk (Crude diglycosidase; [18]): 42.4%
- Decomposition efficiency of glycitin family in concentrated soybean protein (Crude diglycosidase; [19]): 0.5%
- Decomposition efficiency of glycitin family in roasted soy flour (Crude diglycosidase; [19]): not detected
- Decomposition efficiency of glycitin family in soymilk (Crude diglycosidase; [19]): 34.3%
- Decomposition efficiency of glycitin family in concentrated soybean protein (Crude diglycosidase; [20]): 0.4%
- Decomposition efficiency of glycitin family in roasted soy flour (Crude diglycosidase; [20]): not detected
- Decomposition efficiency of glycitin family in soymilk (Crude diglycosidase; [20]): 25.5%
- Decomposition efficiency of glycitin family in concentrated soybean protein (Crude diglycosidase; [21]): 0.4%
- Decomposition efficiency of glycitin family in roasted soy flour (Crude diglycosidase; [21]): not detected
- Decomposition efficiency of glycitin family in soymilk (Crude diglycosidase; [21]): 36.0%
- Decomposition efficiency of glycitin family in defatted soybean (Crude diglycosidase; 80° C., heat treatment of enzyme no, reaction time 0 h): 65.2%
- Decomposition efficiency of glycitin family in defatted soybean (Crude diglycosidase; 80° C., heat treatment of enzyme no, reaction time 1 h): 46.1%
- Decomposition efficiency of glycitin family in defatted soybean (Crude diglycosidase; 80° C., heat treatment of enzyme no, reaction time 3 h): 45.0%
- Decomposition efficiency of glycitin family in defatted soybean (Crude diglycosidase; 80° C., heat treatment of enzyme no, reaction time 6 h): 40.3%
- Decomposition efficiency of glycitin family in defatted soybean (Crude diglycosidase; 80° C., heat treatment of enzyme yes, reaction time 6 h): 48.1%
- Decomposition efficiency of glycitin family in concentrated soybean protein (Crude diglycosidase; [22]): 0.4%
- Decomposition efficiency of glycitin family in roasted soy flour (Crude diglycosidase; [22]): not detected
- Decomposition efficiency of glycitin family in soymilk (Crude diglycosidase; [22]): 49.1%
- Decomposition efficiency of glycitin family in concentrated soybean protein (Crude diglycosidase; [23]): 0.4%
- Decomposition efficiency of glycitin family in roasted soy flour (Crude diglycosidase; [23]): not detected
- Decomposition efficiency of glycitin family in soymilk (Crude diglycosidase; [23]): 43.6%
- Decomposition efficiency of glycitin family in concentrated soybean protein (Crude diglycosidase; [24]): 0.4%
- Decomposition efficiency of glycitin family in roasted soy flour (Crude diglycosidase; [24]): not detected
- Decomposition efficiency of glycitin family in soymilk (Crude diglycosidase; [24]): 32.6%
- Decomposition efficiency of glycitin family in concentrated soybean protein (Crude diglycosidase; [25]): 0.3%
- Decomposition efficiency of glycitin family in roasted soy flour (Crude diglycosidase; [25]): not detected
- Decomposition efficiency of glycitin family in soymilk (Crude diglycosidase; [25]): 21.3%
- Decomposition efficiency of glycitin family in concentrated soybean protein (Crude diglycosidase; [26]): 0.3%
- Decomposition efficiency of glycitin family in roasted soy flour (Crude diglycosidase; [26]): not detected
- Decomposition efficiency of glycitin family in soymilk (Crude diglycosidase; [26]): 19.3%
SMILES: COc1cc2c(=O)c(-c3ccc(O)cc3)coc2cc1O[C@@H]1O[C@H](COC(=O)CC(=O)O)[C@@H](O)[C@H](O)[C@H]1O [malonylglycitin, 6″-O-malonylglycitin]
